Measurements published in patent publication US4956344A, “Method for treatment of lesions in the large intestinal epithelium with a tripeptide” (Hafslund Nycomed A/S, priority 1989, dated 1990).
Values joined by “and” are separate entries in the source; they are usually repeats but may differ in a detail not shown here. Equal entries are not always repeated. Square brackets hold non-standard residues; d marks the D form. Peptide text beside a SMILES is read from it. pGlu = O=C1CC[C@@H](C(=O)O)N1

How the values were obtained:
[1] = system: large intestinal epithelium; assay: Mitotic rate (Colcemid-arrested metaphases) in the large intestinal epithelium after i.p. injection; type: in vivo, hairless mice; set-up: mitotic rate in the large intestinal epithelium, Treated group Mean / Mitotic rate, Treated: unit not given here; conditions: for cell proliferation in the large intestinal epithelium (mitotic rate), Treated: mean
Protocol: (§1) All in vivo experiments were performed with hairless mice at 0800-0900 AM. The fractions were suspended in distilled water, slightly acidified (pH=6) and injected i.p. at different doses dependent on the purity of the fraction. The controls received solvent only. The pattern of cell proliferation after injecting the peptide was examined by varying the time between treatment and sacrifice.
Two hours before sacrifice (except for the experiments testing tissue specificity in the kidney) all animals received Colcemid 0.15 mg per animal i.p. ^3 HTdR (tritiated thymidine) was injected 30 minutes before sacrifice (30 μCi per animal i.p.). […]
Mitotic rate: After routine dehydration and paraffin embedding, sections were cut at 5 μm and stained with haematoxylin. Colcemid-arrested mitoses per 500 crypt cells were determined in ten longitudinally cut crypts in ileum and colon. Only crypts that were cut strictly longitudinally were accepted, viz., only those where the lumen of the crypt could be followed from the bottom of the gland to the lumen of the gut. No telophases were seen. The number of accumulated metaphases in epidermis Was determined by counting 25 vision fields of interfollicular epidermis (eyepiece 12.5, objective 40) and expressed as mitoses per vision field per 2h.

[2] = system: large intestinal epithelium; assay: Labelling index (3HTdR-labelled crypt cells) in the large intestinal epithelium after i.p. injection; type: in vivo, hairless mice; set-up: key to Labelling index, Treated: fraction of labelled cells per 500 crypt cells; conditions: for Labelling index, Treated: 10^-12 mole per animal
Protocol: as §1
(§2) Two hours before sacrifice (except for the experiments testing tissue specificity in the kidney) all animals received Colcemid 0.15 mg per animal i.p. ^3 HTdR (tritiated thymidine) was injected 30 minutes before sacrifice (30 μCi per animal i.p.).
Labelling index: Paraffin sections, cut at 5 μm, were dipped in Kodak-NTB emulsion and exposed for 3 weeks at 0°-4° C., developed, and stained with haematoxylin The number of labelled cells were counted per 500 crypt cells in longitudinally cut crypts as described above. Similarly, the number of labelled cells in 40 vision fields of interfollicular epidermis (eyepiece 12.5, objective 40) was determined. A cell was considered labelled when the number of grains was five or more.

epidermis = assay: Tissue specificity: mitotic rate in epidermis (back skin); type: in vivo, hairless mice; conditions: time and dose levels tested
Protocol: (§3) To test for possible tissue specificity of the tripeptide the back skin and a defined part of ileum of eight animals were fixed immediately after killing. The mitotic rate (see below) in sections from these tissues was compared with the corresponding values in solvent-treated animals. Unilateral nephrectomy (uNX) was performed in four animals, and the animals were treated with the tripeptide at 18h after surgery. Controls underwent uNX and received solvent only. These animals received Colcemid 3h before sacrifice at 42h. The mitotic rate (number of accumulated metaphases per 1000 cells per 3h) was registered in the outer part of the kidney cortex.
as §2
(§4) Mitotic rate: After routine dehydration and paraffin embedding, sections were cut at 5 μm and stained with haematoxylin. Colcemid-arrested mitoses per 500 crypt cells were determined in ten longitudinally cut crypts in ileum and colon. Only crypts that were cut strictly longitudinally were accepted, viz., only those where the lumen of the crypt could be followed from the bottom of the gland to the lumen of the gut.

[3] = system: kidney tubular epithelium; assay: Tissue specificity: mitotic rate in kidney cortex after unilateral nephrectomy; type: in vivo, hairless mice; conditions: proliferation induced by contralateral nephrectomy; treated 18h after surgery, sacrifice at 42h
Protocol: as §3

[4] = system: colon carcinoma cell line HT 29; assay: Proliferation of HT 29 cells, incorporation of tritiated thymidine; type: cell-based; conditions: for incorporation of 3HTdR, Treated (Mean): 1 % fetal calf serum, 6 hour-period
Protocol: Cell culture: HT 29 cells, 20000 cells per well in 96-well tissue culture clusters. Medium: RPMI 1640, 1 % fetal calf serum Concentration of the tripeptide 10^-8 M, lyophilized peptide dissolved in medium.
Assay for proliferation: Incorporation of tritiated thymidine (^3 HTdR) 6 hour-period, ^3 HTdR 1 uCi per well.
The tripeptide was added to the culture on the third day (exponential growth), and the incorporation of tritiated thymidine was measured for 6 hour-periods at 16h, 24h, and 40h after the peptide was added to the wells.

small intestine = assay: Tissue specificity: mitotic rate in small intestine (ileum); type: in vivo, hairless mice; conditions: time and dose levels tested
Protocol: as §3, §2, §4

With `O=C(O)CC[C@H](NC(=O)[C@@H]1CCC(=O)N1)C(=O)N[C@@H](CC(=O)O)C(=O)N[C@@H](CO)C(=O)NCC(=O)O` [pGlu-Glu-Asp-Ser-Gly (OH), reference compound] ([pGlu]EDSG-OH) the “cell proliferation in the large intestinal epithelium” value ([1]; 10^-12 mole per animal, doses and times tested) was “unchanged”.

`O=C(O)CNC(=O)[C@H](Cc1c[nH]cn1)NC(=O)[C@@H]1CCC(=O)N1` [pGlu-His-Gly(OH), L-pyroglutamyl-L-histidyl-glycine] ([pGlu]-His-Gly-OH) was tested, and the “reduced LI, significance” value ([2]; 15 and 18 h after treatment) was “not statistically significant”, the “Labelling index, Treated” value ([2]; 2 h after single i.p. injection) was 0.086 and the “labelling index (LI)” value ([2]; 4h after injection) was “pronounced reduction”. For the same compound, the “Labelling index, Treated” value ([2]; 4 h after single i.p. injection) was 0.067, the “Labelling index, Treated” value ([2]; 6 h after single i.p. injection) was 0.067 and the “Labelling index, Treated” value ([2]; 8 h after single i.p. injection) was 0.058. The “Labelling index, Treated” value ([2]; 12 h after single i.p. injection) was 0.048, the “Labelling index, Treated” value ([2]; 15 h after single i.p. injection) was 0.068 and the “Labelling index, Treated” value ([2]; 18 h after single i.p. injection) was 0.11. The “Labelling index, Treated” value ([2]; 24 h after single i.p. injection) was 0.098, the “number of labelled cells, second period” value ([2]; approximately 8h after the first decrease) was “second inhibition of the same degree” and the “inhibitory effect on cell proliferation in epidermis” value (epidermis) was “No inhibitory effect”. The “inhibitory effect on cell proliferation in kidney tubular epithelium” value [3] was “No inhibitory effect”, the “incorporation of 3HTdR, Treated (Mean)” value ([4]; 10^-8 M, 16 h after addition of peptide) was 12177 and the “incorporation of 3HTdR, Treated (Mean)” value ([4]; 10^-8 M, 24 h after addition of peptide) was 9080. The “incorporation of 3HTdR, Treated (Mean)” value ([4]; 10^-8 M, 40 h after addition of peptide) was 12485, the “incorporation of 3HTdR” value ([4]; 10^-8 M, 24-30h after the treatment, 1 % serum) was “significant reduction” and the “inhibition of 3HTdR incorporation” value ([4]; 10^-10 M) was “less, but still significant inhibition”. The “growth of HT 29 cells with increased serum” value ([4]; serum addition increased to 10 &) was “varied between significant inhibition of growth and no effect”, the “number of accumulated metaphases” value ([1]; 2-4h after injection, 10^-12 mole per animal i.p.) was “significantly reduced” and the “cell proliferation in the large intestinal epithelium (mitotic rate), Treated” value (“cell proliferation … Treated” for short) ([1]; 10^-6 mole per animal i.p.) was 0.047. For the same compound, the “cell proliferation … Treated” value ([1]; 10^-9 mole per animal i.p.) was 0.044, the “inhibition of mitotic rate in the large intestinal epithelium” value ([1]; 10^-11 mole per animal) was “smaller, but significant inhibition” and the “cell proliferation … Treated” value ([1]; 10^-11 mole per animal i.p., p<0.05) was 0.021. The “reduction of the number of accumulated metaphases” value ([1]; 10^-12 mole per animal) was “more than 50%”, the “cell proliferation … Treated” value ([1]; 10^-12 mole per animal i.p., p<0.05) was 0.018 and the “mitotic rate in the large intestinal epithelium, Treated group Mean” value ([1]; 10^-12 mole per animal, synthetic peptide, seven identical experiments in mice, one line each, p<0.05) was 0.018 and 0.021 and 0.026 and 0.043 and 0.025. For the same compound, the “cell proliferation … Treated” value ([1]; 10^-15 mole per animal i.p.) was 0.042, the “cell proliferation … Treated” value ([1]; 10^-18 mole per animal i.p.) was 0.035 and the “Mitotic rate, Treated” value ([1]; 2 h after single i.p. injection, 10^-12 mole per animal) was 0.021. For the same compound, the “Mitotic rate, Treated” value ([1]; 4 h after single i.p. injection, 10^-12 mole per animal) was 0.018, the “Mitotic rate, Treated” value ([1]; 6 h after single i.p. injection, 10^-12 mole per animal) was 0.027 and the “Mitotic rate, Treated” value ([1]; 8 h after single i.p. injection, 10^-12 mole per animal) was 0.031. For the same compound, the “Mitotic rate, Treated” value ([1]; 12 h after single i.p. injection, 10^-12 mole per animal) was 0.019, the “Mitotic rate, Treated” value ([1]; 15 h after single i.p. injection, 10^-12 mole per animal) was 0.010 and the “Mitotic rate, Treated” value ([1]; 18 h after single i.p. injection, 10^-12 mole per animal) was 0.027. For the same compound, the “Mitotic rate, Treated” value ([1]; 24 h after single i.p. injection, 10^-12 mole per animal) was 0.057, the “mitotic rate, second effect” value ([1]; approximately 15h after injection, less pronounced than the first, 10^-12 mole per animal) was “new Wave of inhibition” and the “decrease in cell proliferation in the large intestinal epithelium” value ([1]; doses higher than 10^-11 or lower than 10^-12 mole per animal) was “no significant decrease”. The “mitotic count in the treated group” value ([1]; thereafter, for a period of 6-8h, not formally significant, 10^-12 mole per animal) was “exceeded the control level” and the “inhibitory effect on cell proliferation in the small intestine” value (small intestine) was “No inhibitory effect”.
